Assay results from publication PMC2848536 (Journal of medicinal chemistry, 2010).
Entries after “also recorded” stand apart in the source; their conditions may differ.

Legend:
[1] = test system: actin cytoskeleton of HeLa cells; assay: HeLa cell microfilament; assay type: cell-based, human; conditions: 24 h, result in words
microfilaments = conditions: result in words; cited from earlier work
HCT-116 cells = conditions: read-out: IC50 against HCT-116 cells, cytotoxicity; cited from earlier work

Compound	microfilament disruption at 80 nM [1]	MF disruption at 5 µM (microfilaments)	IC50 (HCT-116 cells)
C/C1=C\[C@H](C)C[C@H](C)OC(=O)C[C@H](c2ccc(O)cc2)NC(=O)[C@@H](Cc2c(Br)[nH]c3ccccc23)N(C)C(=O)[C@H](C)NC(=O)[C@@H](C)C1 [Compound 1, jasplakinolide]	exhibited microfilament disruption		
jasplakinolide F [Compound 4]	exhibited microfilament disruption		
C=C1C[C@H](C)C(=O)N[C@@H](C)C(=O)N(C)[C@H](Cc2c(Br)[nH]c3ccccc23)C(=O)N[C@@H](c2ccc(O)cc2)CC(=O)O[C@@H](C)C[C@@H](C)C1=O [Compound 11, jasplakinolide B]	without microfilament disruption; also recorded: without MF disruption; also recorded: did not exhibit microfilament-disrupting activity		
18-epi-latrunculol		without MF disruption	2100 nM
